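Five compound concentrations were applied to cells in 96-well plates for 48 hours; endpoints were derived by simple linear interpolation of the resulting dose-response curve. Definition used: TGI = concentration required for complete inhibition of growth.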
Key:
Assay in all cases: DTP human tumour cell line panel, 48 h
HCT-116 colon = tested on: HCT-116 colon
SN12C renal = tested on: SN12C renal
SF-295 CNS = tested on: SF-295 CNS
CCRF-CEM leukemia = tested on: CCRF-CEM leukemia
LXFL 529 NSCLC = tested on: LXFL 529 NSCLC
KM20L2 colon = tested on: KM20L2 colon
DMS 273 small cell lung = tested on: DMS 273 small cell lung
SNB-78 CNS = tested on: SNB-78 CNS

SMILES	TGI (HCT-116 colon) [µM]	TGI (SN12C renal) [µM]	TGI (SF-295 CNS) [µM]	TGI (CCRF-CEM leukemia) [µM]	TGI (LXFL 529 NSCLC) [µM]	TGI (KM20L2 colon) [µM]	TGI (DMS 273 small cell lung) [µM]	TGI (SNB-78 CNS) [µM]
Cc1ccc(SSCCCCS(=O)O)cc1	> 100	40.4	96.4	62.5	25.5	46.9	65.7	> 100
CC(=O)Nc1ccc(OCC(O)CO)cc1 (stereo not drawn)	> 100	> 100	> 100	> 100	> 100	> 100	> 100	> 100
CCOc1ccccc1NC(=O)C(=O)c1c(O)c2ccc(O)cc2oc1=O	> 100	> 100	> 100	> 100	> 100	> 100	> 100	> 100
CC1CCC2[C@@H](C)COC3O[C@]4(C)CCC1C32OO4 (stereo partly drawn)	> 100	> 100	> 100	> 100	> 100	> 100	> 100	> 100
C/C(=N\NS(=O)(=O)c1ccccc1)c1ccc[n+]([O-])n1	> 100	> 100	> 100	64.6	> 100	> 100	> 100	> 100
O=C(OCc1ccccc1)c1ccccc1-c1c2ccc(=O)cc-2oc2cc(OCc3ccccc3)ccc12	57.7	74.4	80.3	36.8	> 100	> 100	> 100	> 100
CC(=O)N1CCN(C=S)CC1	> 100	> 100	> 100	> 100	> 100	> 100	> 100	> 100
N#CC12CC3(CCC1CCC1(C2)OCCO1)OCCO3 (stereo not drawn)	> 100	> 100	> 100	> 100	> 100	> 100	> 100	> 100
CC(=O)Nc1ccccc1S(=O)c1ccccc1 (stereo not drawn)	> 100	> 100	> 100	> 100	> 100	> 100	> 100	> 100
C=C1CC(CC(=O)C(C)CC2CC(=C)C(=O)O2)OC1=O (stereo not drawn)	24.6	34.1	> 100	26.8	27.8	> 100	57.5	49.7
N#CC1([N+](=O)[O-])C=C1c1ccccc1 (stereo not drawn)	> 100	> 100	> 100	72.2	> 100	> 100	> 100	> 100
N#CCCn1c(CCC(=O)Nc2ccc(Cl)cc2Cl)n[nH]c1=S	> 100	> 100	> 100	> 100	> 100	> 100	> 100	> 100
CC1=C(C(=O)NCc2ccccc2)C(c2ccccc2O)C(C(=O)NCc2ccccc2)=C(C)N1	28.5	32.3	44.7	82.9	28.7	37	31.2	95.2
CC(=O)CC(=O)ON(C)C(=O)Cc1ccccc1	> 100	> 100	> 100	> 100	> 100	> 100	> 100	> 100
CCCCCCC(=O)CC(=O)C(=O)Nc1ccccc1C	> 100	> 100	> 100	> 100	> 100	> 100	> 100	> 100
Cc1ccc(NC(=O)CC2C(=O)Nc3ccccc3S2(=O)=O)cc1C (stereo not drawn)	> 100	> 100	> 100	> 100	> 100	> 100	> 100	> 100

Reference: PubChem BioAssay (NCI)
